Where a chain is given by its changes, count along the chain named.

Data set [1] addresses T1, hCNT3 (full-length wild-type) (Homo sapiens, UniProt Q9HAS3).
T1 construct: gene SLC28A3; full-length, C-terminal Strep-tag, codon-optimized cDNA, baculovirus/Sf9 expression, purified in DDM, homotrimer
T1 sequence (Q9HAS3 1-691): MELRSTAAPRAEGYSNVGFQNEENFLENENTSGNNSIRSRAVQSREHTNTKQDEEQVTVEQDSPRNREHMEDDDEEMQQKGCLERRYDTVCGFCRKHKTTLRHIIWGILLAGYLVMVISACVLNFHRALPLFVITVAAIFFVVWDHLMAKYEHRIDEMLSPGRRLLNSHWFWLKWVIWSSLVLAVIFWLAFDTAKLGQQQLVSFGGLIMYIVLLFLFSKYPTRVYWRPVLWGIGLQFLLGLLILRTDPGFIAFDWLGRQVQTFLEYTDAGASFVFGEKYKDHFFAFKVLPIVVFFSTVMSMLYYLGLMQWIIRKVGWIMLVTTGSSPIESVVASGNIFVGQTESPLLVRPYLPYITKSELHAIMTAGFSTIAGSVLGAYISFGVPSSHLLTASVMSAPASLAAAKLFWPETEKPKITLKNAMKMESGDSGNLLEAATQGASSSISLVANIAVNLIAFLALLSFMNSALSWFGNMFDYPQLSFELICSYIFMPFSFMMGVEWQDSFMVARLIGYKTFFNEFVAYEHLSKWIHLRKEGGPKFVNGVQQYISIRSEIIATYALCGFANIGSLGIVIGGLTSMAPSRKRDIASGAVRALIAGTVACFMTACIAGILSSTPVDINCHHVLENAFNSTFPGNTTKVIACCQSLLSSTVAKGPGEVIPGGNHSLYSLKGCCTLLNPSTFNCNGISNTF
As to the kind of experiment: isothermal titration calorimetry, one-site model. The conditions noted are these: read-out: binding affinity.

Data set [2] addresses T2, hCNT3 (full-length wild-type) (Homo sapiens, UniProt Q9HAS3, E343A).
T2 construct: gene SLC28A3; full-length, C-terminal Strep-tag, codon-optimized cDNA, baculovirus/Sf9 expression, purified in DDM, homotrimer
T2 sequence (Q9HAS3 1-691 E343A): T1 sequence (Q9HAS3 1-691) with E343A
The experiment in a line: isothermal titration calorimetry, one-site model. The conditions noted are these: read-out: binding affinity.

Data set [3] concerns the target T3, hCNT3 (full-length wild-type) (Homo sapiens, UniProt Q9HAS3, N565A).
T3 construct: gene SLC28A3; full-length, C-terminal Strep-tag, codon-optimized cDNA, baculovirus/Sf9 expression, purified in DDM, homotrimer
T3 sequence (Q9HAS3 1-691 N565A): T1 sequence (Q9HAS3 1-691) with N565A
As to the kind of experiment: isothermal titration calorimetry, one-site model. The format is binding.

For the next data set, the target named is T4, CNT3ins (Δ1–69) (Homo sapiens, UniProt Q9HAS3).
T4 construct: gene SLC28A3; lacks the 69 N-terminal residues, C-terminal Strep-tag, baculovirus/Sf9 expression, purified in DDM for ITC, homotrimer
T4 sequence (Q9HAS3 70-691): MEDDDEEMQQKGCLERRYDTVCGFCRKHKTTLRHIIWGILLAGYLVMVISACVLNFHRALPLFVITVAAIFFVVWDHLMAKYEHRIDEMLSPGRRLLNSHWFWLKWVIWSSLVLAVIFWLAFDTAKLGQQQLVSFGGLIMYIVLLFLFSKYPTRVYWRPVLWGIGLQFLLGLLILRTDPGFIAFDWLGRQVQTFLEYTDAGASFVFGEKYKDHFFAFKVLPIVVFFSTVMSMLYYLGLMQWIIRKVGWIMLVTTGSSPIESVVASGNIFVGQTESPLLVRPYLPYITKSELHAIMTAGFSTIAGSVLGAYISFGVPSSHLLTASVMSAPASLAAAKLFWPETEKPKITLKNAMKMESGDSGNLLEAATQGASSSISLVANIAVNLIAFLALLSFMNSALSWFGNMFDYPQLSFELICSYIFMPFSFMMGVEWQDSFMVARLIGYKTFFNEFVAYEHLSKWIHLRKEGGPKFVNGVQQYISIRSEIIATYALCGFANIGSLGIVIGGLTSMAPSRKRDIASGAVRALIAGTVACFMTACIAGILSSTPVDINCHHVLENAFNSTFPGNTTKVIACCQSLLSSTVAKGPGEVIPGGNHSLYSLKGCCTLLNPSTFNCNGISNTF
The experiment in a line: isothermal titration calorimetry, one-site model. The settings on record: read-out: binding affinity.

Data set [4] concerns the molecule itself. As to the kind of experiment: cryo-EM structure; purified CNT3ins (Δ1–69) at 6 mg/ml in 25 mM Tris pH 8.0, 150 mM NaCl, 0.1% digitonin; nucleoside-free; reconstruction with C3 symmetry.

With `Nc1ccn([C@@H]2O[C@H](CO)[C@@H](O)[C@H]2O)c(=O)n1` [cytidine], the Kd in data set [1] is about 260 µM.
Still for that read-out and setting: the figure for `Cc1cn([C@H]2C[C@H](O)[C@@H](CO)O2)c(=O)[nH]c1=O` [thymidine] is about 603 µM.
`O=c1ccn([C@@H]2O[C@H](CO)[C@@H](O)[C@H]2O)c(=O)[nH]1` [uridine]: the Kd in data set [2] is about 1.19 mM; in data set [3], about 280 µM; on CNT3ins (Δ1–69) it was about 368 µM; in data set [1], about 325 µM.

B1: CNT3ins, the truncated isoform (Δ1–69) of human concentrative nucleoside transporter 3 (hCNT3) (domain or fragment, UniProt Q9HAS3 70-691, looked up)
chain: T4 sequence (Q9HAS3 70-691)
notes: human concentrative nucleoside transporter 3 (hCNT3, SLC28A3), truncated isoform lacking the 69 N-terminal residues (Δ1–69); codon-optimised cDNA; density resolved for residues 100–614; also called CNT3ins (Δ1–69); SLC28A3; source: Sf9 insect cells (baculovirus, pFastBac1), purified (StrepTactin Sepharose, Superose 6 SEC) in digitonin or DDM
For B1, in data set [4], the “stoichiometry N” value was found to be 3.

The record behind these values is publication PMC7440666, “Cryo-EM structure of the human concentrative nucleoside transporter CNT3” (PLoS Biology, 2020).
